Data on 1 compound can be found in patent US20040162247A1, “Therapeutic agent or osteoporosis comprising an active ingredient of quercetin derivatives” (priority 2000, published 2004).

Data set [1] concerns ovariectomized rats. Nature of the data set: Biochemical parameters in plasma of ovariectomized rats. The format is in vivo, Female SD (Sprague-Dawley) rats. Particulars: rat, in vivo. Here is the method:
(§1) When test agents were administered, for a certain period of time before and after administration, 1.5 ml of blood was sampled from tail vein using a catheter (B.D Co.: 24 G) and subjected to complete blood count (Coulter Co.: JT) and biochemical analyses of plasma (Crone Co.: Airon® 200). During autopsy, blood was sampled from caudal venae cavae and subjected to the analyses above. And then, each sample was frozen to store for measurement of trabecular bone area of femur and examination of internal organs.
Since blood reflects the condition of body, safety of quercetin in the body was evaluated by measuring biochemical parameters: that is, blood samples were obtained from the rat prior to operation, one week after operation, and 10 weeks after operation, and measured were levels of alkaline phosphatase (ALP), calcium, inorganic phosphate, blood urea nitrogen (BUN), creatinin, total cholesterol, HDL-cholesterol and LDL-cholesterol (see: Table 8).

Data set [2] concerns ovariectomized rats. Nature of the data set: Complete blood count in ovariectomized rats. The class given is in vivo, Female SD (Sprague-Dawley) rats. Particulars: rat, in vivo. As to the method: as §1
Complete blood count which reflects the condition and abnormality of the body was measured to find out abnormality in test animals caused by administrtion of agents. That is, to find out changes in hematopoiesis of test rats, measured were red blood cell (RBC) count, concentration of hemoglobin (Hb) and hematocrit (Ht) of-blood samples obtained from the rats prior to operation and the rats 10 weeks after administrating agents following operation, and to find out changes in immune system such as inflammation and necrosis of tissues, measured were white blood cell count, lymphocyte count, monocyte count, and granulocyte count (see: Table 7).

The test system of data set [3] is ovariectomized rats. Nature of the data set: Trabecular bone area of tibia in ovariectomized rats.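 On Change Rate (%) of TBA of tibia, of control group: control group rats were ovariectomized and are not the sham group.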 The class given is in vivo, Female SD (Sprague-Dawley) rats. To be noted: OVX rats, 9 weeks i.p. (E2 1 μg/kg/day; quercetin, genistein 10 mg/kg/day). Here is the method: (§2) Trabecular bone area (TBA) of lumbar and tibia removed from the rats of each group which was treated with various agents for 9 weeks were measured as follows: that is, using a digitalizer of quantitative image analysis system (Wild Leitz Co.), image of each trabecula was obtained on computer monitor by drawing a contour of the trabecula, and then, using a computer, calculated were average areas of trabeculae within a rectangle of 2×10^6 μm^2 area wherein the width is about ⅔ of the length of growth plate which located underneath of growth plate at proximity of tibia. Also, following the number of trabeculae within the rectangle were obtained, average area was multiplied by the number of trabeculae to obtain trabecular bone area of each sample bone, which was analyzed statistically (see: Table 5).

The conditions of data set [4]: rat, in vivo.
Method: Female SD (Sprague-Dawley) rats, a model animal for type I osteoporosis occurring after menopause were employed for evaluating pharmacological effectiveness of quercetin. Female rats (10 weeks old) weighing 200 to 300 g, obtained from the Korea Research Institute of Chemical Technology were employed as experimental animals. Experiment was carried out by the procedure which comprises removing ovary, administration of agents to the each group of rats, and at certain days after ovariectomy, the rats were sacrificed and subjected to analyses including measurement of body weight, examination of internal organs, measurement of trabecular bone area, complete blood count, and biochemical analyses of plasma.
The Sham group, animals operated upon for the surgery as in the ovariectomized rats except for removing ovary, were employed to compare the changes caused solely by ovariectomy in control group which were ovariectomized but no agent was administered. Control group was employed to compare the changes caused by administration of agents in test group which were ovariectomized and administered with testing agents.
During the period of administration, blood was sampled once a week. After 9-week administration, entire blood was withdrawn with heparin treatment. Following complete blood count (CBC), the blood was centrifuged at 3,000 rpm for 20 minutes to obtain plasma which was stored at −70° C. until use. For measurement of bone mineral density, the lumbar spine L5 and L6, and right tibia were removed and stored separately in 4% (v/v) formalin solution.
Data set [5] concerns ovariectomized rats. Nature of the data set: Trabecular bone area of lumbars in ovariectomized rats.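 On Change Rate (%) of TBA of lumbars, of control group: control group rats were ovariectomized and are not the sham group.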 To be noted: OVX rats, 9 weeks i.p. (E2 1 μg/kg/day; quercetin, genistein 10 mg/kg/day). The class given is in vivo, Female SD (Sprague-Dawley) rats. As to the method: as §2
TBAs of lumbars removed from the animal treated with test agents for 9 weeks were measured employing the same method above (see: Table 6).

Values joined by “and” are separate entries in the source; they are usually repeats but may differ in a detail not shown here. Identical values can stand only once.

For `C[C@]12CC[C@@H]3c4ccc(O)cc4CC[C@H]3[C@@H]1CC[C@@H]2O` [E2, 17β-estradiol], in data set [1], the “Concentration of ALP in plasma” value is recorded as 196.01 ± 28.34 U/dL, the “Concentration of HDL-cholesterol in plasma” value worked out at 52.30 ± 2.01 mg/dL, the “Concentration of LDL-cholesterol in plasma” value is given as 24.49 ± 1.63 mg/dL and the “Concentration of blood urea nitrogen (BUN)” value was 18.36 ± 1.01 mg/dL. Also, in data set [1], the “Concentration of calcium in plasma” value was 10.86 ± 0.40 mg/dL, the “Concentration of creatinin in plasma” value was determined as 0.55 ± 0.05 mg/dL, the “Concentration of inorganic phosphate in plasma” value was 6.90 ± 0.52 mg/dL and the “Concentration of total cholesterol in plasma” value turned out to be 76.79 ± 2.80 mg/dL. Further, in data set [2], the “Concentration of hemoglobin(Hb)” value was 15.86 ± 0.24 g/dL; the “Hematocrit(Ht)” value stood at 43.11 ± 0.55%; the “Lymphocyte and granulocyte count, before versus after operation (in words)” value was “rapid decrease”; the Lymphocyte count is reported as 17.80 ± 1.72 ×10^3 cells/μl. Also, in data set [2], the “Red blood cell(RBC) count” value is 7.33 ± 0.13 ×10^6 cells/μl; the “White blood cell count” value is 23.14 ± 1.50 ×10^3 cells/μl; the “White blood cell count, before versus after operation (in words)” value was “decreased”. Further, the “TBA (trabecular bone area) of tibia” value in data set [3] is on record as 51.40 ± 2.28 ×10^4 μm^2. For the same compound, the “Change Rate (%) of TBA of tibia, of control group” value in data set [3] (control group = 100) is 148% and 148.46 ± 6.59%. Besides, the “Weight” value in data set [4] worked out at 228.51 ± 8.11 g. The “TBA (trabecular bone area) of lumbars” value in data set [5] is listed as 89.16 ± 2.83 ×10^4 μm^2. In addition, the “Change Rate (%) of TBA of lumbars, of control group” value in data set [5] (control group = 100) was 132% and 132.04 ± 4.19 %.
